Measured values taken from patent publication US10166271B2, “Methods for promoting hair growth” (THE REGENTS OF THE UNIVERSITY OF CALIFORNIA, priority 2006, dated 2019).

How the values were obtained:
[1] = test system: CRF-OE mice; assay: Long-term hair growth after sc injection in alopecic female CRF-OE mice (Example 5); assay type: in vivo; settings: two female CRF-OE mice; sc 5 μg/day x 5 days; four months after the final injection
Experimental: Two female CRF-OE mice, which had fully developed alopecia, received a single daily subcutaneous injection of 5 μg astressin B (in 0.1 ml saline) in the back for five consecutive days. Four (4) months after the final injection, the growth of hair on the backs of both mice was scored 9 out of 10. Similarly, two out of four male CRF-OE mice received intraperitoneal injection of 5 μg astressin B for five consecutive days. Thus, the mice not only grew hair in a previously bald (or balding) region, but such hair was maintained for months without on-going treatment.

[2] = test system: CRF-OE mice; assay: Subcutaneous implanted mini-pump in CRF-OE mice, hair growth; assay type: in vivo; settings: 10 μg/mouse/day for 7 days, implanted mini-pump sc; CRF-OE male and female mice 5-7 months old
Description: Eight (8) out of 9 (89%) female mice responded to injected (sc) astressin B with increased pigmentation and hair growth. The remaining […] female mice were observed qualitatively. Similarly, 4 out of 4 (100%) of the male mice responded to astressin B with increased pigmentation and hair growth. In contrast, none of the astressin 2B-injected mice (0%) grew significant amounts of hair.

| Substance | Growth of hair on the back, score out of 10 [1] | Hair growth for 1 month post treatment [2] |
| --- | --- | --- |
| (cyclo 30-33)[DPhe12, Nle21,38, Cml27,40, Glu30, Lys33]Ac-h/rCRF9-41 [Astressin B] | 9 | – |
| cyclo(31-34)[DPhe11, His12, CαMeLeu13,39, Nle17, Glu31, Lys34]Ac-Sau(8-40) [Astressin 2B, reference compound] | – | no hair growth was observed |
